Data reported in PMC6395383, “Participation of Gαi-Adenylate Cyclase and ERK1/2 in Mas Receptor Signaling Pathways” (Frontiers in Pharmacology, 2019).
Where a name gives a salt, the structure may show the parent alone. No end group written: not given here.

Experiments:
Mas receptor = details: ref Tetzner et al., 2016; cited from earlier work
From the text: (§1) The reasons for this discrepancy could rely on the different approaches used to detect the cAMP levels. We desig ...

MrgD receptor = details: ref Tetzner et al., 2016; cited from earlier work
From the text: as §1

MasR [1] = tested on: MasR; design: method as in 2 sources, one per row (each row's own in cited_ref): ref Bikkavilli et al., 2006; Shemesh et al., 2008; Zhang et al., 2012; Tirupula et al., 2014 ||| ref Dong et al., 2001; details: ref Dong et al., 2001; cited from earlier work
AT1R mRNA = AT1R mRNA by qPCR after siRNA transfection of HEK293T cells; assay type: cell-based, human; details: siRNA 100 nM, 48 h after transfection, β-Actin, three independent experiments
Protocol: HEK293T (human embryonic kidney) and A549 (human lung carcinoma) cells were cultured in Dulbecco’s modified Eagle’s medium (DMEM) supplemented with 10% fetal calf serum and 50 μg/ml gentamicin. Cultures were maintained at 37°C in humidified atmosphere containing 5% CO2. For transient transfections, cells were grown to 80–90% confluency and the cDNA constructs were transfected using the K2 Transfection System (Biontex, Munich, Germany). The transfection protocol was optimized as recommended by the suppliers. Assays were performed 48 h after transfection. […]
Total RNA was isolated from wild type or transfected HEK293T cells using Quick-Zol reagent (Kalium Technologies, Bernal, Argentina) following the manufacturer’s instructions. […] Quantitative real-time PCR (qPCR) was performed in triplicate on the Rotor Gene Q cycler (Qiagen, Hilden, Germany) using the resulting cDNA, the HOT FIREPol EvaGreen qPCR Mix Plus (Solis BioDyne, Tartu, Estonia) for product detection, and the following primers: human MasR (NM_002377.2) forward, 5′-[…] -3′ and reverse 5′-[…]-3′; human AT1R (M93394.1) forward, 5′-[…]-3′ and reverse, 5′-[…]-3′; human AT2R (NM_000686.4) forward, 5′-[…]-3′ and reverse 5′-[…]-3′; and human β-Actin forward, 5′-[…]-3′ and reverse 5′-[…]-3′. […]

MasR (A549 cells) = test: Intracellular Ca^2+ (Fura-2AM) in A549 cells transfected with pcDNA 3.1/myc-MasR; assay type: cell-based, human; details: histamine 10^-4 M, same conditions (Figure 3E,F: empty vector or MasR)
Protocol: An empty vector [pcDNA 3.1 (+)] was used both as negative control and to deliver an equal amount of plasmid per transfection in all the experiments.
Changes in intracellular Ca^2+ concentration were measured using fura-2 acetoxymethyl ester (Fura-2AM) fluorescent indicator. […] Fluorescence was measured in a FlexStation 3 microplate reader (Molecular Devices Inc., San Jose, CA, United States). […] After 30 s of initial recording to determine basal levels, 100 nM Ang (1–7) or 100 μM histamine was added in 100 μl final volumes, and the time course of intracellular Ca^2+ mobilization was recorded for 180 s. […] Autofluorescence was quantified by measuring the fluorescence produced by an equivalent suspension of not-loaded cells. Results were expressed as the ratio of fluorescence’s 340/380 over basal. […]

A549 cells = test: Intracellular Ca^2+ (Fura-2AM) in A549 cells with endogenous MasR; assay type: cell-based, human; details: histamine 10^-4 M, 340/380 ratio, 180 s, representative of three independent experiments
Protocol: Changes in intracellular Ca^2+ concentration were measured using fura-2 acetoxymethyl ester (Fura-2AM) fluorescent indicator. A549 cells were seeded in 96 wells dishes for 24 h (90–100% confluence). […] Fluorescence was measured in a FlexStation 3 microplate reader (Molecular Devices Inc., San Jose, CA, United States). […] After 30 s of initial recording to determine basal levels, 100 nM Ang (1–7) or 100 μM histamine was added in 100 μl final volumes, and the time course of intracellular Ca^2+ mobilization was recorded for 180 s. […] Autofluorescence was quantified by measuring the fluorescence produced by an equivalent suspension of not-loaded cells. Results were expressed as the ratio of fluorescence’s 340/380 over basal. Basal levels were determined as the media of the recorded measurements in the first 30 s for each well.

MasR [2] = tested on: MasR; design: method as in Gaidarov et al. (2018); details: 30 min forskolin pre-incubation, 60 min with ligand; ref Gaidarov et al. (2018); cited from earlier work
heart = details: orally active; ref Ferreira et al., 2007; cited from earlier work
From the text: The physiological relevance of the constitutive activity of the MasR remains to be determined. Constitutive activity of GPCRs for various neurotransmitters contributes to basal neuronal activity ([Seifert and Wenzel-Seifert, 2002]). The mRNA encoding the MasR has been detected in various regions of the rat and mouse brain ([Young et al., 1988]; [Bunnemann et al., 1990]; [Martin et al., 1992]; [Metzger et al., 1995]). In addition, it has been reported that MasR-KO mice have alterations of the CNS ([Walther et al., 1998], [2000a],[b]). Thus, the constitutive activity of the MasR could play a reg ...

HEK293T cells = test: cAMP accumulation, forskolin-stimulated, in empty-vector (pcDNA 3.1) HEK293T cells; assay type: cell-based, human; details: HEK293T transfected with empty vector; 1 mM IBMX, 1 μM forskolin; ligand 5 min; three independent experiments
Protocol: For time-course assays, transfected cells were seeded in 24 wells dishes and after 24 h, 100% confluent cells were starved for 2 h and incubated 5 min in basal culture medium supplemented with 1 mM IBMX at 37°C, followed by exposure to 1 μM forskolin for 5, 10, 15, 30, or 60 min. In concentration response assays, transfected cells were seeded in 24 wells dishes after 24 h, 100% confluent cells were starved for 2 h and incubated 5 min in basal culture medium supplemented with 1 mM IBMX at 37°C, followed by 10 min exposure to 1 μM forskolin to increase basal cAMP levels, and incubated for 5 min with indicated concentrations of Ang-(1–7) or AVE 0991. For all cAMP determinations, the reactions were stopped by ethanol addition followed by centrifugation at 2,000 g for 10 min. The ethanol phase was then dried, and the residue resuspended in 50 mM Tris-HCl pH 7.4, 0.1% BSA. cAMP content was determined by competition of [^3H]cAMP for PKA, as previously described ([Davio et al., 1995]).

human MasR = target: T1, human MasR (Homo sapiens, UniProt P04201); test: cAMP accumulation, forskolin-stimulated, in MasR-transfected HEK293T cells (competition of [^3H]cAMP for PKA); assay type: cell-based; details: 1 mM IBMX
T1 construct: host or cells: HEK293T, transient transfection
T1 sequence (P04201 1-325): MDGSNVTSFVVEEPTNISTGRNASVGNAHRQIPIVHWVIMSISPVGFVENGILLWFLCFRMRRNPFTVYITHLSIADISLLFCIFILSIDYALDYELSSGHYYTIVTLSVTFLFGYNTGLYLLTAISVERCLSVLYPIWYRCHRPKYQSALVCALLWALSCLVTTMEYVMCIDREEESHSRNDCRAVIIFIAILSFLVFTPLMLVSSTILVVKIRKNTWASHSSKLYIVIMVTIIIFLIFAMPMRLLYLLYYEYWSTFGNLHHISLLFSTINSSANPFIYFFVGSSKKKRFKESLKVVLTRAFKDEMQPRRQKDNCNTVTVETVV
Protocol: A pcDNA3.1(+)-myc-MasR expression construct corresponding to the human MasR (accession number: NM_002377.2) fused to the c-myc tag peptide at N-terminal was acquired from Life Technologies (Grand Island, NY, United States). An empty vector [pcDNA 3.1 (+)] was used both as negative control and to deliver an equal amount of plasmid per transfection in all the experiments.
Cultures were maintained at 37°C in humidified atmosphere containing 5% CO2. For transient transfections, cells were grown to 80–90% confluency and the cDNA constructs were transfected using the K2 Transfection System (Biontex, Munich, Germany). The transfection protocol was optimized as recommended by the suppliers. Assays were performed 48 h after transfection. […] The transfection protocol was optimized as recommended by the suppliers. Assays were performed 48 h after transfection.
For determination of cAMP basal levels, transfected cells were seeded in 12 wells dishes, 24 h later 100% confluent cells were starved for 2 h and pretreated, when indicated, for 1 h with pertussis toxin (100 ng/ml) and incubated later for 30 min in basal culture medium supplemented with 1 mM IBMX at 37°C. […] The ethanol phase was then dried, and the residue resuspended in 50 mM Tris-HCl pH 7.4, 0.1% BSA. cAMP content was determined by competition of [^3H]cAMP for PKA, as previously described ([Davio et al., 1995]).

renal AT1R = details: pM range; reference not clearly printed; cited from earlier work
From the text: (§2) The analysis of the interaction between Ang-(1–7) and the AT1R originated discrepancies. […] In addition, [Teixeira et al. (2017)] by performing competition binding assays using ...

AT1R = details: CHO-K1 cells; ref Kostenis et al., 2005; cited from earlier work
From the text: The modulation of the activity of ERK1/2 by Ang-(1–7) has been analyzed previously. […] Participation of the M ...

AT1R (Homo sapiens) [3] = target: AT1R (Homo sapiens) (UniProt P30556); test: competition binding with 3H-Ang II; details: cited from earlier work
AT1R (Homo sapiens) [4] = target: AT1R (Homo sapiens) (UniProt P30556); test: competition binding; details: cited from earlier work
[5] = tested on: rat proximal straight tubule; details: against 10^-12 and 10^-8 M Ang-(1–7); ref Garcia and Garvin (1994); cited from earlier work
From the text: as §2

Sequence of AT1R (Homo sapiens) (P30556 whole entry): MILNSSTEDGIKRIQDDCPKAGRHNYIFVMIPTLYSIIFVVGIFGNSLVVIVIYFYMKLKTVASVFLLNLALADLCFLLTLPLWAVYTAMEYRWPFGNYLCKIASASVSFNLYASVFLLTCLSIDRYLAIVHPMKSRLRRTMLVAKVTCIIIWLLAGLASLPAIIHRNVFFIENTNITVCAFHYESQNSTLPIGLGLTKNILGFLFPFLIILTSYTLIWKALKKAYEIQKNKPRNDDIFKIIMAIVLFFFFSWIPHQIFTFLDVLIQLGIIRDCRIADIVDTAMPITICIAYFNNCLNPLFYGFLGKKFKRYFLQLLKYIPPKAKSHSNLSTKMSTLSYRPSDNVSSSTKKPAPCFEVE

D-Ala7-Ang-(1–7)
antagonism of Ang-(1–7)-induced cAMP increase, HEK293 overexpressing Mas (Mas receptor): blocked
antagonism of Ang-(1–7)-induced cAMP increase, HEK293 overexpressing MrgD (MrgD receptor): blocked

NPFF: neuropeptide FF (FLFQPQRF; ends and bridges not checked; UniProt O15130 69-76, looked up)
conventional G protein signaling, NPFF (MasR [1]): conventional G protein signaling has been reported

AT1R siRNA: human AT1R siRNA (AUACGUGACUGUAGAAUUG) (chemistry not given here)
reduction of AT1R mRNA levels versus scrambled siRNA (AT1R mRNA): ~50%

NCCc1c[nH]cn1 [histamine, histamine dihydrochloride]
intracellular Ca^2+ levels, transfected A549 cells, positive control (MasR (A549 cells)): important increase in Ca^2+ levels
intracellular Ca^2+ levels, A549 cells (endogenous MasR), positive control (A549 cells): significant increase in cytosolic Ca^2+ levels

CCNC(=O)NS(=O)(=O)c1sc(CC(C)C)cc1-c1ccc(Cn2c(-c3ccccc3)nc(OC)c2C=O)cc1 [AVE 0991, 5-formyl-4-methoxy-2-phenyl-1-[[4-[2-ethylaminocarbonylsulfonamido-5-isobutil-3-thienyl]phenyl]-methyl]imidazole]
forskolin-stimulated cAMP levels in MasR-transfected HEK293 cells (MasR [2]): no change in forskolin-stimulated cAMP levels
heart dysfunction, AVE 0991 (heart): beneficial effects obtained in heart dysfunction
modulation of cAMP levels, empty vector (HEK293T cells): did not alter cAMP levels
modulation of cAMP levels (human MasR; HEK293T overexpressing MasR, 1 μM forskolin, ligand 5 min): concentration-dependent decrease in the production of cAMP
pEC50, concentration-dependent decrease in the production of cAMP (human MasR; HEK293T transfected with pcDNA3.1/c-myc-MasR, 10 min 1 μM forskolin, then 5 min ligand, 37°C, mean ± SEM of three independent experiments): 7.75 ± 0.40

Ang II: angiotensin II, of the classical RAS axis (DRVYIHPF; Angiotensin-2; UniProt P01019 25-32, looked up)
affinity of renal AT1R on proximal tubules (renal AT1R): very high affinity for Ang II (in the pM range)
Ang II-induced IP1 production and Ca^2+ increase on MasR/AT1R coexpression (AT1R): significantly decreased both the Ang II-induced production of IP1 and the increase of intracellular Ca^2+ levels mediated by the AT1R

D-Pro7-Ang-(1–7)
antagonism of Ang-(1–7)-induced cAMP increase, HEK293 overexpressing Mas (Mas receptor): blocked
antagonism of Ang-(1–7)-induced cAMP increase, HEK293 overexpressing MrgD (MrgD receptor): blocked

Angiotensin-(1-7) (from UniProt P01019)
Ki (AT1R (Homo sapiens) [3]): 0.2 µM
Ki (AT1R (Homo sapiens) [4]): 0.36 µM

CCCCc1nc(Cl)c(CO)n1Cc1ccc(-c2ccccc2-c2nn[nH]n2)cc1 [losartan]
block of Ang-(1–7) effects on absorption [5]: both effects were blocked by losartan
